# Like-named read-outs stand apart in the source and are kept apart here.
# Assays:
# [1] = tested on: bladder cancer cell lines; experiment: Cell based assay, cell viability (CellTiter-Glo), bladder cancer cell lines; conditions: 72 hours treatment, 0 to 2 μM, CellTiter-Glo
# Procedure, shortened: (§1)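 Following a 24 h pre-culture in plates, cells receive test compound (final 0 to 2 μM) for 72 hours. Luminescent quantitation of cellular ATP gives viability.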
# [2] = tested on: renal cancer cell lines; experiment: Cell based assay, cell viability (CellTiter-Glo), renal cancer cell lines; conditions: Homo sapiens; ACHN cells
# Procedure, shortened: as §1
# [3] = tested on: ovarian cancer cell lines; experiment: Cell based assay, cell viability (CellTiter-Glo), ovarian cancer cell lines; conditions: Homo sapiens; OVCAR-3 cells
# Procedure, shortened: as §1
# [4] = tested on: neuroblastoma cell lines; experiment: Cell based assay, cell viability (CellTiter-Glo), neuroblastoma cell lines; conditions: Homo sapiens; SH-SY5Y cell line
# Procedure, shortened: as §1
# [5] = tested on: prostate cancer cell lines (e.g. DU145/TXR); experiment: Cell based assay, cell viability (CellTiter-Glo), prostate cancer cell lines; conditions: Homo sapiens, 72 hours treatment, final concentration 0 to 2 μM
# Procedure, shortened: as §1
# [6] = tested on: RT4: human urinary bladder transitional cell papilloma; experiment: Cell based assay, cytotoxicity in RT4 papilloma cells (selectivity); conditions: Homo sapiens, RT-4; RT4 cells
# [7] = 5637 cells, read-out: IC50, bladder cancer cell line 5637
# [8] = Homo sapiens, T-24, T24 cells, read-out: IC50, bladder cancer cell line T24
# [9] = Homo sapiens, J82 cells, read-out: IC50, bladder cancer cell line J82
# [10] = CWR22 cells, read-out: IC50, prostate cancer cell line CWR22
# [11] = DU-145, DU145/TXR cells, read-out: IC50, prostate cancer cell line DU145/TXR
# [12] = DU-145, DU145 cells, read-out: IC50, prostate cancer cell line DU145
# [13] = LNcap cells, read-out: IC50, prostate cancer cell line LNcap
# [14] = PC-3 cells, read-out: IC50, prostate cancer cell line PC-3
# [15] = Homo sapiens, KU-19-19 cells, read-out: IC50, bladder cancer cell line KU-19-19
SMILES,"IC50 [1, 7] [µM]","IC50 [1, 8] [µM]","IC50 [1, 9] [µM]",IC50 [2] [µM],IC50 [3] [µM],IC50 [4] [µM],"IC50 [5, 10] [µM]","IC50 [5, 11] [µM]","IC50 [5, 12] [µM]","IC50 [5, 13] [µM]","IC50 [5, 14] [µM]","IC50 [1, 15] [µM]",IC50 [6] [µM]
"CC(=O)c1c([S+]([O-])Cc2c(F)c(F)c(F)c(F)c2F)[nH]c2c(Br)ccc(Cl)c2c1=O (stereo not shown) [Compound 78, 3-acetyl-8-bromo-5-chloro-2-(((perfluorophenyl)methyl)sulfinyl)quinolin-4(1H)-one]",> 2,1.8,> 2,> 2,1.01,> 2,> 2,1.38,1.15,> 2,1.53,,> 10
"CC(=O)c1c([S+]([O-])Cc2cc(Cl)ccc2Cl)[nH]c2c(Br)ccc(Cl)c2c1=O (stereo not shown) [Compound 44, 3-acetyl-8-bromo-5-chloro-2-((2,5-dichlorobenzyl)sulfinyl)quinolin-4(1H)-one]",1.35,0.92,2.07,> 2,0.84,> 2,1.58,1,1.6,1.98,1.49,,> 10
"CC(=O)c1c([S+]([O-])Cc2cccc(F)c2)[nH]c2c(Br)ccc(Cl)c2c1=O (stereo not shown) [Compound 50, 3-acetyl-8-bromo-5-chloro-2-((3-fluorobenzyl)sulfinyl)quinolin-4(1H)-one]",1.47,,> 2,> 2,0.89,> 2,> 2,1.28,1.77,> 2,1.6,,> 10
"CC(=O)c1c(S(=O)(=O)Cc2ccccc2)[nH]c2c(Br)ccc(Cl)c2c1=O [Compound 34, 3-acetyl-2-(benzylsulfonyl)-8-bromo-5-chloroquinolin-4(1H)-one]",> 2,> 2,> 2,> 2,0.99,> 2,> 2,1.59,> 2,,,,> 10
"COC(=O)c1ccc(C[S+]([O-])c2[nH]c3c(Cl)ccc(Cl)c3c(=O)c2C(C)=O)o1 (stereo not shown) [Compound 89, methyl 5-(((3-acetyl-5,8-dichloro-4-oxo-1,4-dihydroquinolin-2-yl)sulfinyl)methyl)furan-2-carboxylate]",> 2,1.75,> 2,> 2,0.86,1.04,> 2,1.96,> 2,> 2,> 2,,> 10
"CC(=O)c1c([S+]([O-])Cc2ccc(C(F)(F)F)cc2)[nH]c2c(Br)ccc(Cl)c2c1=O (stereo not shown) [Compound 70, 3-acetyl-8-bromo-5-chloro-2-((4-(trifluoromethyl)benzyl)sulfinyl)quinolin-4(1H)-one]",1.73,1.69,1.94,> 2,1.18,> 2,1.89,1.19,1.09,> 2,1.25,,> 10
"Cc1cc(C[S+]([O-])c2[nH]c3c(Br)ccc(Cl)c3c(=O)c2C(=O)C(C)C)no1 (stereo not shown) [Compound 95, 8-bromo-5-chloro-3-isobutyryl-2-(((5-methylisoxazol-3-yl)methyl)sulfinyl)quinolin-4(1H)-one]",1.23,0.98,1.47,1.19,0.38,0.48,1.08,0.94,0.84,1.98,1.7,,> 10
"COc1cc(S(F)(F)(F)(F)F)ccc1C[S+]([O-])c1[nH]c2c(Br)ccc(Cl)c2c(=O)c1C(C)=O (stereo not shown) [Compound 75, 3-acetyl-8-bromo-5-chloro-2-((2-methoxy-4-(pentafluoro--sulfanyl)benzyl)sulfinyl)quinolin-4(1H)-one]",1.57,1.33,1.48,> 2,1.36,> 2,1.88,1.03,1.02,> 2,1.44,,> 10
"CC(=O)c1c([S+]([O-])Cc2ccc(C(C)(C)C)cc2)[nH]c2c(Br)ccc(Cl)c2c1=O (stereo not shown) [Compound 60, 3-acetyl-8-bromo-2-((4-(tert-butyl)benzyl)sulfinyl)-5-chloroquinolin-4(1H)-one]",> 2,1.72,> 2,> 2,> 2,> 2,> 2,1.26,> 2,> 2,1.82,,> 10
"CC(=O)c1c([S+]([O-])Cc2ccc([S+]([O-])C(F)(F)F)cc2)[nH]c2c(Br)ccc(Cl)c2c1=O (stereo not shown) [Compound 64, 3-acetyl-8-bromo-5-chloro-2-((4-((trifluoromethyl)sulfinyl)benzyl)sulfinyl)quinolin-4(1H)-one]",1.52,1.04,1.96,> 2,0.9,> 2,1.49,1.16,1.57,1.71,1.43,,> 10
"CC(=O)c1c([S+]([O-])Cc2cc(F)cc(F)c2)[nH]c2c(Br)ccc(Cl)c2c1=O (stereo not shown) [Compound 46, 3-acetyl-8-bromo-5-chloro-2-((3,5-difluorobenzyl)sulfinyl)quinolin-4(1H)-one]",1.77,1.57,> 2,> 2,1.02,> 2,> 2,1.56,> 2,> 2,> 2,,> 10

# The next lines start with results.
"IC50 [1, 7] [µM]","IC50 [1, 8] [µM]","IC50 [1, 9] [µM]",IC50 [2] [µM],IC50 [3] [µM],IC50 [4] [µM],"IC50 [5, 10] [µM]","IC50 [5, 11] [µM]","IC50 [5, 12] [µM]","IC50 [5, 13] [µM]","IC50 [5, 14] [µM]","IC50 [1, 15] [µM]",SMILES,IC50 [6] [µM]
> 2,1.79,> 2,> 2,> 2,> 2,> 2,> 2,> 2,> 2,> 2,,"CC(=O)c1c([S+]([O-])Cc2ccc([N+](=O)[O-])cc2)[nH]c2c(Cl)ccc(Cl)c2c1=O (stereo not shown) [Compound 57, 3-acetyl-5,8-dichloro-2-((4-nitrobenzyl)sulfinyl)quinolin-4(1H)-one]",> 10
> 2,,> 2,> 2,1.11,> 2,> 2,1.77,> 2,> 2,1.87,> 2,"CC(=O)c1c([S+]([O-])Cc2ccc(C#N)cc2)[nH]c2c(Br)ccc(Cl)c2c1=O (stereo not shown) [Compound 73, 4-(((3-acetyl-8-bromo-5-chloro-4-oxo-1,4-dihydroquinolin-2-yl)sulfinyl)methyl)benzonitrile]",> 10
> 2,1.03,> 2,1.38,0.59,0.6,1.42,1.23,1.39,> 2,> 2,,"CC(=O)c1c([S+]([O-])Cc2cccnc2)[nH]c2c(Br)ccc(Cl)c2c1=O (stereo not shown) [Compound 84, 3-acetyl-8-bromo-5-chloro-2-((pyridin-3-ylmethyl)sulfinyl)quinolin-4(1H)-one]",> 10
1.51,1.39,1.98,> 2,1.31,> 2,> 2,1.23,1.74,> 2,1.7,,"CC(=O)c1c([S+]([O-])Cc2ccc(OC(F)(F)F)cc2)[nH]c2c(Br)ccc(Cl)c2c1=O (stereo not shown) [Compound 71, 3-acetyl-8-bromo-5-chloro-2-((4-(trifluoromethoxy)benzyl)sulfinyl)quinolin-4(1H)-one]",> 10
1.36,1.02,1.61,1.33,0.38,0.5,1.26,1.11,1.31,> 2,1.67,,"Cc1cc(C[S+]([O-])c2[nH]c3c(Cl)ccc(Cl)c3c(=O)c2C(=O)C(C)C)no1 (stereo not shown) [Compound 86, 5,8-dichloro-3-isobutyryl-2-(((5-methylisoxazol-3-yl)methyl)sulfinyl)quinolin-4(1H)-one]",> 10
> 2,0.98,1.46,> 2,1.09,> 2,1.55,0.86,1.42,1.82,1.3,0.9,"CC(=O)c1c([S+]([O-])Cc2ccc(SC(F)(F)F)cc2)[nH]c2c(Br)ccc(Cl)c2c1=O (stereo not shown) [Compound 56, 3-acetyl-8-bromo-5-chloro-2-((4-((trifluoromethyl)thio)benzyl)sulfinyl)quinolin-4(1H)-one]",> 10
1.23,1.12,1.38,> 2,0.71,> 2,1.59,0.93,1.44,1.64,1.41,,"CC(=O)c1c([S+]([O-])Cc2ccc(F)c(Cl)c2)[nH]c2c(Br)ccc(Cl)c2c1=O (stereo not shown) [Compound 31, 3-acetyl-8-bromo-5-chloro-2-((3-chloro-4-fluorobenzyl)sulfinyl)quinolin-4(1H)-one]",> 10
> 2,1.54,> 2,> 2,0.92,> 2,> 2,1.39,> 2,> 2,1.93,,"COc1cccc(C[S+]([O-])c2[nH]c3c(Br)ccc(Cl)c3c(=O)c2C(C)=O)c1 (stereo not shown) [Compound 55, 3-acetyl-8-bromo-5-chloro-2-((3-methoxybenzyl)sulfinyl)quinolin-4(1H)-one]",> 10
1.6,1.07,> 2,> 2,0.98,> 2,1.72,1.46,> 2,1.76,1.47,,"CC(=O)c1c([S+]([O-])Cc2c(F)cccc2Cl)[nH]c2c(Br)ccc(Cl)c2c1=O (stereo not shown) [Compound 74, 3-acetyl-8-bromo-5-chloro-2-((2-chloro-6-fluorobenzyl)sulfinyl)quinolin-4(1H)-one]",> 10

# — patent US11464770B2, “Anticancer pharmaceutical composition” (NATIONAL CANCER CENTER, priority 2016, dated 2022)
